Test results taken from the supplement of paper PMC10307832.

Key:
Assay in all cases: relative viability (nuclei count vs DMSO), 5 days (fraction); higher = more cells survive
Dabrafenib + Luminespib = compound: CC(C)(C)c1nc(-c2cccc(NS(=O)(=O)c3c(F)cccc3F)c2F)c(-c2ccnc(N)n2)s1 [Dabrafenib] + CCNC(=O)c1noc(-c2cc(C(C)C)c(O)cc2O)c1-c1ccc(CN2CCOCC2)cc1 [Luminespib] (partner 0.01 µM)
Summary of the method: (§1)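 One day after seeding in 1536-well plates, lung cancer cell lines were dosed by pin tool. Dosing was either single-drug or a fixed anchor-drug dose plus five library-drug doses (not always all listed) in √10 steps. After 5 days, nuclei were stained in one fix-and-stain step and counted on 4× images, and relative viability is the nuclei count of treated wells over that of vehicle wells, given as the median of duplicate plates.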

Dabrafenib + Foretinib = compound: CC(C)(C)c1nc(-c2cccc(NS(=O)(=O)c3c(F)cccc3F)c2F)c(-c2ccnc(N)n2)s1 [Dabrafenib] + COc1cc2c(Oc3ccc(NC(=O)C4(C(=O)Nc5ccc(F)cc5)CC4)cc3F)ccnc2cc1OCCCN1CCOCC1 [Foretinib] (partner 0.25 µM)
Summary of the method: as §1

Dabrafenib + Dasatinib = compound: CC(C)(C)c1nc(-c2cccc(NS(=O)(=O)c3c(F)cccc3F)c2F)c(-c2ccnc(N)n2)s1 [Dabrafenib] + Cc1nc(Nc2ncc(C(=O)Nc3c(C)cccc3Cl)s2)cc(N2CCN(CCO)CC2)n1 [Dasatinib] (partner 0.075 µM)
Summary of the method: as §1

VX-702 + Luminespib = compound: NC(=O)c1ccc(N(C(N)=O)c2c(F)cccc2F)nc1-c1ccc(F)cc1F [VX-702] + CCNC(=O)c1noc(-c2cc(C(C)C)c(O)cc2O)c1-c1ccc(CN2CCOCC2)cc1 [Luminespib] (partner 0.01 µM)
Summary of the method: as §1

VX-702 + Pemetrexed = compound: NC(=O)c1ccc(N(C(N)=O)c2c(F)cccc2F)nc1-c1ccc(F)cc1F [VX-702] + Nc1nc2[nH]cc(CCc3ccc(C(=O)N[C@@H](CCC(=O)O)C(=O)O)cc3)c2c(=O)[nH]1 [Pemetrexed] (partner 0.2 µM)
Summary of the method: as §1

SW 900
relative viability (Dabrafenib + Luminespib; first compound 0.009487 µM): 0.186
relative viability (Dabrafenib + Luminespib; first compound 0.03 µM): 0.166
relative viability (Dabrafenib + Luminespib; first compound 0.3 µM): 0.214
relative viability (Dabrafenib + Foretinib; first compound 0.009487 µM): 0.905
relative viability (Dabrafenib + Foretinib; first compound 0.03 µM): 0.788
relative viability (Dabrafenib + Foretinib; first compound 0.3 µM): 0.856
relative viability (Dabrafenib + Dasatinib; first compound 0.009487 µM): 0.581
relative viability (Dabrafenib + Dasatinib; first compound 0.03 µM): 0.371
relative viability (Dabrafenib + Dasatinib; first compound 0.3 µM): 0.705
relative viability (VX-702 + Luminespib; first compound 0.02 µM): 0.202
relative viability (VX-702 + Luminespib; first compound 0.2 µM): 0.188
relative viability (VX-702 + Luminespib; first compound 0.6325 µM): 0.15
relative viability (VX-702 + Luminespib; first compound 2 µM): 0.16
relative viability (VX-702 + Pemetrexed; first compound 0.02 µM): 0.51
relative viability (VX-702 + Pemetrexed; first compound 0.2 µM): 0.488
relative viability (VX-702 + Pemetrexed; first compound 0.6325 µM): 0.474
relative viability (VX-702 + Pemetrexed; first compound 2 µM): 0.464
